Among the data in patent publication US20250320227A1, “MACROCYCLIC OREXIN RECEPTOR AGONISTS AND USES THEREOF” (Jazz Pharmaceuticals Ireland Limited, priority 2022, published 2025) are EC50 values, retold here.

pEC50: −log10 of the molar value.

This test has as its target T1, human recombinant OX2 (hOX2) receptors expressed in CHO cells (Homo sapiens, UniProt O43614).
T1 construct: host or cells: CHO cells (hOX2-CHO)
T1 sequence (O43614 1-444): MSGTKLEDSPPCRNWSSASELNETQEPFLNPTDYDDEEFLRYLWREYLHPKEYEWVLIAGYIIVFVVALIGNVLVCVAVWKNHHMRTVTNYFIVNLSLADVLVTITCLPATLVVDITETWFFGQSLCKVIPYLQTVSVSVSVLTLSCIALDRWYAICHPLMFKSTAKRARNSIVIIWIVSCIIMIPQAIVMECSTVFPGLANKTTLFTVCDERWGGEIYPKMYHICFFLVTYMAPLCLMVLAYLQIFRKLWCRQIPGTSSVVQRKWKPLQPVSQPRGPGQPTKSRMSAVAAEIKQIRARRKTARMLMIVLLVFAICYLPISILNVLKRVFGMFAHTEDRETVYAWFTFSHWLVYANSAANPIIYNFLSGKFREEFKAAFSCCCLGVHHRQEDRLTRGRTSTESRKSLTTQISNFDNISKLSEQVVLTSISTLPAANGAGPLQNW
As to the kind of experiment: IP-1 accumulation assay (IP-One HTRF) in hOX2-CHO cells. It is filed as cell-based. As to conditions: 60 min incubation at 37° C., mean of at least two independent experiments, read-out: EC50_OX2R Category. As for the experimental part: The accumulation of Inositol-1 Monophosphate (IP-1) was measured using IP-One HTRF® Terbium cryptate based assay (Cisbio) in human recombinant OX1 (hOX1) and at OX2 (hOX2) receptors expressed in CHO cells (DiscoverX) according to the manufacturer's instructions for cells tested in suspension.
hOX1-CHO and hOX2-CHO cells were seeded into white 384-well plates at a density of 20,000 cells/well in Hank's Balanced Salt Solution (HBSS) containing 20 mM HEPES pH 7.4, 50 mM, LiCl and 0.1% and Bovine Serum Albumin (BSA).
Compounds of disclosure were tested in an 11 points concentration response curve (CRC) serially diluted in neat DMSO at 200 fold concentrations and added by Echo acoustic liquid handling (Labcyte) to the cells (0.5% DMSO final in the assay). After 60 min of incubation at 37° C. detection reagents, IP1-d2 tracer and anti-IP1-cryptate were diluted in lysis buffer according to the manufacturer's descriptions and added to the cells.
Following 60 min incubation at room temperature, time-resolved fluorescence (HTRF) was measured at 615 nm and 665 nm by Envision Multilabel reader (Perkin Elmer) and the HTRF ratio (A665/A615×10^4) was calculated.
The IP-1 accumulation response was expressed as percentage of the maximal OX-A response.
Curve fitting and EC50 estimations were carried out using a four-parameter logistic model using XLfit Software. Mean data of EC50 are calculated from at least two independent experiments performed in duplicates
As to `O=C1COCC2(CCN3C(=O)CCOc4ccccc4[C@H]4CC[C@H](CC4)OCC32)N1` (mixture of isomers) [Example 1, rel-(1's,3S,16′R,19′s)-8′,18′-dioxa-12′-azaspiro[morpholine-3,15′-tetracyclo[17.2.2.0^2,70.0^12,16]tricosane]-2′(7′),3′,5′-triene-5,11′-dione], the pEC50 was > 7.00.

Regarding `O=C1COCC2(CCN3C(=O)CCCOc4ccccc4[C@H]4CC[C@H](CC4)OCC32)N1` (mixture of isomers) [Example 2, rel-(1′s,3S, 17′R,20′s)-8′,19′-dioxa-13′-azaspiro[morpholine-3, 16′-tetracyclo [18.2.2.0^2,70.0^13,17]tetracosane]-2′(7′),3′,5′-triene-5,12′-dione], the pEC50 was 5.00 to 6.00.

As to `O=C1COCC2(CCN3C(=O)COc4ccccc4[C@H]4CC[C@H](CC4)OCC32)N1` (mixture of isomers) [Example 3, rel-(1′s,3S, 15′R,18′s)-8′,17′-dioxa-11′-azaspiro[morpholine-3,14′-tetracyclo[16.2.2.0^2,70.0^11,15]docosane]-2′(7′),3′,5′-triene-5,10′-dione], the pEC50 is 5.00 to 6.00.

With `O=C1COCC2(CCN3C(=O)C4(CC4)COc4ccccc4[C@H]4CC[C@H](CC4)OCC32)N1` (mixture of isomers) [Example 7, Rel-(1′s, 15'S,16′R,19′s)-dispiro[cyclopropane-1,10′-[8,18]dioxa-[12]azatetracyclo[17.2.2.0^2,70.0^12,16]tricosane-15′,3″-morpholine]-2′(7′),3′,5′-triene-5″,11′-dione], the pEC50 is 5.00 to 6.00.

`O=C1CCOc2ccccc2[C@H]2CC[C@H](CC2)OCC2N1CCC21COCCN1` (mixture of isomers) [Example 9, Rel-(1′s,3S,16′R,19′s)-8′,18′-dioxa-12′-azaspiro[morpholine-3,15′-tetracyclo[17.2.2.0^2,70.0^12,16]tricosane]-2′,4′,6′-trien-11′-one]: the pEC50 is < 5.00.

As for `O=C1COCC2(CCN3C(=O)CCOc4cccc(F)c4[C@H]4CC[C@H](CC4)OCC32)N1` (mixture of isomers) [Example 10, Rel-(1′s,3S,16′R,19′s)-3′-fluoro-8′,18′-dioxa-12′-azaspiro[morpholine-3,15′-tetracyclo[17.2.2.0^2,70.0^12,16]tricosane]-2′(7′),3′,5′-triene-5,11′-dione], the pEC50 was > 7.00.

Turning to `O=C1COCC2(CCN3C(=O)CCOc4c(F)cc(F)cc4[C@H]4CC[C@H](CC4)OCC32)N1` (mixture of isomers) [Example 11, Rel-(1′s,3S,16′R,19′s)-4′,6′-difluoro-8′,18′-dioxa-12′-azaspiro[morpholine-3,15′-tetracyclo[17.2.2.0^2,70.0^12,16]tricosane]-2′(7′),3′,5′-triene-5,11′-dione], the pEC50 is 6.00 to 7.00.

For `C[C@@H]1CC2(COCC(=O)N2)C2CO[C@H]3CC[C@H](CC3)c3ccccc3OCCCC(=O)N21` (mixture of isomers) [Example 14, (1′s,14′R,20's)-14′-methyl-8′,19′-dioxa-13′-azaspiro[morpholine-3,16′-tetracyclo[18.2.2.0^2,70.0^13,17]tetracosane]-2′(7′),3′,5′-triene-5,12′-dione], the pEC50 was > 7.00.

Turning to `C[C@@H]1CC2(COCC(=O)N2)C2Cc3cccc(c3F)-c3ccccc3CCCC(=O)N21` (mixture of isomers) [Example 28], the pEC50 was 5.00 to 6.00.

Regarding `C[C@@H]1CC2(COCC(=O)N2)C2Cc3cccc(c3F)-c3ccccc3CCCCC(=O)N21` (mixture of isomers) [Example 29, (14′R)-23′-fluoro-14′-methyl-13′-azaspiro[morpholine-3,16′tetracyclo-[17.3.1.0^2,70.0^13,17]tricosane]-1′(23′),2′(7′),3′,5′,19′,21′-hexaene-5,12′-dione], the pEC50 is < 5.00.

`C[C@@H]1CC2(COCC(=O)N2)C2Cc3cccc(c3F)-c3ccccc3OCCN(C)C(=O)N21` (mixture of isomers) [Example 30, (14′R)-23′-fluoro-11′,14′-dimethyl-8′-oxa-11′,13′-diazaspiro[morpholine-3,16′-tetracyclo[17.3.1.0^2,70.0^13,17]tricosane]-1′(23′),2′(7′),3′,5′,19′,21′-hexaene-5,12′-dione]: the pEC50 is 5.00 to 6.00.

On to `C[C@@H]1CC2(COCC(=O)N2)C2Cc3cccc(c3F)-c3ccccc3OCCCN(C)C(=O)N21` (mixture of isomers) [Example 31, (15′R)-24′-fluoro-12′, 15′-dimethyl-8′-oxa-12′, 14′-diazaspiro[morpholine-3,17′-tetracyclo[18.3.1.0^2,70.0^14,18]tetracosane]-1′(24′),2′(7′),3′,5′,20′,22′-hexaene-5,13′-dione], for which the pEC50 was < 5.00.

For the compound `O=C1COCC2(CCCN3C(=O)CCOc4ccc(F)cc4[C@H]4CC[C@H](CC4)OCC32)N1` (mixture of isomers) [Example 49, Rel-(1′s,3S,17′R,20′s)-4′-fluoro-8′,19′-dioxa-12′-azaspiro[morpholine-3,16′-tetracyclo[18.2.2. 0^2,^7.0^12,^17]tetracosane]-2′(7′),3′,5′-triene-5,11′-dione], the pEC50 was > 7.00.

`O=C1COCC2(CCCN3C(=O)CCOc4cccnc4[C@H]4CC[C@H](CC4)OCC32)N1` (mixture of isomers) [Example 51, Rel-(1′s,3S,17′R,20′s)-8′,19′-dioxa-3′,12′-diazaspiro [morpholine-3,16′-tetracyclo[18.2.2. 0^2,^7.0^12,^17]tetracosane]-2′(7′),3′,5′-triene-5,11′-dione]: the pEC50 was < 5.00.

Consider `O=C1COCC2(CCCN3C(=O)OCCc4ccccc4[C@H]4CC[C@H](CC4)OCC32)N1` (mixture of isomers) [Example 52, Rel-(1′s,3S,17′R,20's)-10′,19′-dioxa-12′-azaspiro[morpholine-3,16′-tetracyclo [18.2.2.0^2,70.0^12,17]tetracosane]-2′(7′), 3′,5′-triene-5,11′-dione], for which the pEC50 is 5.00 to 6.00.

As for `O=C1COCC2(CCCN3C(=O)OCCOc4cccc(c4)[C@H]4CC[C@H](CC4)OCC32)N1` (mixture of isomers) [Example 53, Rel-(1′s,3S,17′R,20's)-7′,10′,19′-trioxa-12′-azaspiro[morpholine-3,16′-tetracyclo[18.2.2.1^2,60.0^12,17]pentacosane]-2′(25′),3′,5′-triene-5,11′-dione], the pEC50 is > 7.00.

Turning to `O=C1COCC2(CCCN3C(=O)OCCCOc4cccc(c4)[C@H]4CC[C@H](CC4)OCC32)N1` (mixture of isomers) [Example 54, Rel-(1′s,3S,18′R,21′s)-7′,11′,20′-trioxa-13′-azaspiro[morpholine-3,17′-tetracyclo[19.2.2.1^2,60.0^13,18]hexacosane]-2′(26′),3′,5′-triene-5,12′-dione], the pEC50 is > 7.00.

As for `O=C1NC2(CCCN3C(=O)COc4ccccc4[C@H]4CC[C@H](CC4)OCC32)CCO1` (mixture of isomers) [Example 57, Rel-(1′s,4R,16′R,19′s)-8′,18′-dioxa-11′-azaspiro[1,3-oxazinane-4,15′-tetracyclo[17.2.2.0^2,70.0^11,16]tricosane]-2′(7′),3′,5′-triene-2,10′-dione], the pEC50 is > 7.00.

With `O=C1CCCC2(CCCN3C(=O)COc4ccccc4[C@H]4CC[C@H](CC4)OCC32)N1` (mixture of isomers) [Example 58, Rel-(1′s,2S,16′R,19′s)-8′,18′-dioxa-11′-azaspiro[piperidine-2,15′-tetracyclo-[17.2.2.0^2,70.0^11,16]tricosane]-2′(7′),3′,5′-triene-6,10′-dione], the pEC50 was > 7.00.

Take `O=C1COc2ccccc2[C@H]2CC[C@H](CC2)OCC2N1CCCC21CCCS(=O)(=O)N1` (mixture of isomers) [Example 59, Rel-(1s, 15R,16R,19s)-8,18-dioxa-11-azaspiro[tetracyclo[17.2.2.0^2,70.0^11,16]tricosane-15,3′-[1λ^6,2]thiazinane]-2 (7),3,5-triene-1′,1′,10-trione]: the pEC50 was > 7.00.

In the case of `O=C1COCC2(CCCN3C(=O)CCCOc4ccccc4-c4cccc(c4F)CC32)N1` (racemic) [Example 61, Rel-(3S,18′S)-24′-fluoro-8′-oxa-13′-azaspiro[morpholine-3,17′-tetracyclo[18.3.1.0^2,70.0^13,18]tetracosane]-1′(24′),2′(7′), 3′,5′,20′,22′-hexaene-5,12′-dione], the pEC50 was 5.00 to 6.00.

`O=C1COCC2(CCCN3C(=O)CCCCc4ccccc4-c4cccc(c4F)CC32)N1` (racemic) [Example 62, Rel-(3S, 18′S)-24′-fluoro-13′-azaspiro[morpholine-3,17′-tetracyclo[18.3.1.0^2,70.0^13,18]tetracosane]-1′(24′),2′(7′),3′,5′,20′,22′-hexaene-5,12′-dione]: the pEC50 was < 5.00.
